In PubChem BioAssay (NCI):
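A five-concentration, 48-hour dose response in 96-well plates underlies each endpoint, interpolated linearly between surrounding concentrations. TGI marks complete inhibition of growth.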

How the values were obtained:
Assay in all cases: NCI anticancer screen, dose series, 48 h
[1] = tested on: OVCAR-5 ovarian
[2] = tested on: SK-MEL-2 melanoma
[3] = tested on: SK-MEL-28 melanoma
[4] = tested on: HCT-116 colon
[5] = tested on: SNB-75 CNS
[6] = tested on: HT29 colon
[7] = tested on: NCI-H522 lung
[8] = tested on: HS 578T breast
[9] = tested on: OVCAR-3 ovarian
[10] = tested on: LOX IMVI melanoma
[11] = tested on: 786-0 renal
[12] = tested on: M14 melanoma
[13] = tested on: TK-10 renal
[14] = tested on: NCI-H226 lung
[15] = tested on: SF-268 CNS
[16] = tested on: BT-549 breast
[17] = tested on: MDA-MB-231 breast
[18] = tested on: DU-145 prostate
[19] = tested on: ACHN renal
[20] = tested on: SK-OV-3 ovarian
[21] = tested on: MDA-MB-435
[22] = tested on: KM12 colon
[23] = tested on: IGROV1 ovarian
[24] = tested on: COLO 205 colon
[25] = tested on: MALME-3M melanoma
[26] = tested on: HOP-62 NSCLC
[27] = tested on: MCF7 breast
[28] = tested on: UACC-62 melanoma
[29] = tested on: HCT-15 colon
[30] = tested on: UACC-257 melanoma
[31] = tested on: SF-539 CNS
[32] = tested on: A498 renal
[33] = tested on: SN12C renal
[34] = tested on: CAKI-1 renal
[35] = tested on: K-562 leukemia
[36] = tested on: T-47D breast
[37] = tested on: U251 CNS
[38] = tested on: A549 NSCLC
[39] = tested on: SF-295 CNS
[40] = tested on: NCI-H23 lung
[41] = tested on: CCRF-CEM leukemia
[42] = tested on: RXF 393 renal
[43] = tested on: SK-MEL-5 melanoma
[44] = tested on: RPMI-8226 leukemia
[45] = tested on: HL-60(TB) leukemia
[46] = tested on: NCI/ADR-RES ovarian
[47] = tested on: PC-3 prostate
[48] = tested on: UO-31 renal
[49] = tested on: NCI-H460 lung
[50] = tested on: OVCAR-8 ovarian
[51] = tested on: MOLT-4 leukemia
[52] = tested on: MDA-N
[53] = tested on: SNB-19 CNS
[54] = tested on: SW-620 colon

In the case of `CN1CN(c2ccccc2)C2(CCN(CCCN(C)c3ccc(F)cc3)CC2)C1=O`, the TGI [1] is reported as 41.8 µM, the TGI [2] is reported as 33.5 µM and the TGI [3] is reported as 37.9 µM. It also gave a TGI [4] of 25.4 µM, a TGI [5] of 40 µM and a TGI [6] of 22.6 µM. The TGI [7] was 27.4 µM, the TGI [8] was 42.8 µM and the TGI [9] was 31.7 µM. It also gave a TGI [10] of 31 µM, a TGI [11] of 42.2 µM and a TGI [12] of 30.7 µM. It also gave a TGI [13] of 44.9 µM, a TGI [14] of 45.1 µM and a TGI [15] of 54.6 µM. For the same compound, the TGI [16] was 31.1 µM, the TGI [17] was 28.3 µM and the TGI [18] was 76.1 µM. For the same compound, the TGI [19] was 53.2 µM, the TGI [20] was 42.3 µM and the TGI [21] was 37.4 µM. For the same compound, the TGI [22] was 31.3 µM, the TGI [23] was 34.6 µM and the TGI [24] was 24.1 µM. The TGI [25] was 38.1 µM, the TGI [26] was 32.1 µM and the TGI [27] was 29.2 µM. The TGI [28] was 36.5 µM, the TGI [29] was 50.1 µM and the TGI [30] was 33.6 µM. For the same compound, the TGI [31] was 39.7 µM, the TGI [32] was 72.6 µM and the TGI [33] was 66.4 µM. The TGI [34] was 86.4 µM, the TGI [35] was 30.1 µM and the TGI [36] was 41.7 µM. It also gave a TGI [37] of 33.3 µM, a TGI [38] of 65.9 µM and a TGI [39] of 28.3 µM. It also gave a TGI [40] of 44.1 µM, a TGI [41] of 62.1 µM and a TGI [42] of 46.2 µM. It also gave a TGI [43] of 29.8 µM, a TGI [44] of 80.4 µM and a TGI [45] of 26.2 µM. The TGI [46] was 51.3 µM, the TGI [47] was 63.8 µM and the TGI [48] was 40.3 µM. The TGI [49] was 32.9 µM, the TGI [50] was 45.2 µM and the TGI [51] was 54.7 µM. For the same compound, the TGI [52] was 30.7 µM, the TGI [53] was 56.5 µM and the TGI [54] was 36.2 µM.
